Two compounds from paper PMC12135709, “Discovery of the First Selective and Potent PROTAC Degrader for the Pseudokinase TRIB2” (European journal of medicinal chemistry, 2024) can be followed below.

This test deals with T1, TRIB2 (Homo sapiens, UniProt Q92519).
T1 sequence (Q92519 1-343): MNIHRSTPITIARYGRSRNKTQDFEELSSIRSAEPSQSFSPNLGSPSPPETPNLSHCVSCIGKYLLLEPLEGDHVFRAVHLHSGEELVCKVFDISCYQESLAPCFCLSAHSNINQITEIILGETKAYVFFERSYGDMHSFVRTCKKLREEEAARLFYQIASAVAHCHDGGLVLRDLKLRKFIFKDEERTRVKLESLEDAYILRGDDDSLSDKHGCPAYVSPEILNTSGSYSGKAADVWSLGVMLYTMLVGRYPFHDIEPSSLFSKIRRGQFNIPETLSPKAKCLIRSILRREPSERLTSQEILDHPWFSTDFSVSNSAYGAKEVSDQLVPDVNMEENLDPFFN
Briefly: radiometric […]-ATP kinase assay with recombinant human TRIB2; supported by CETSA in PC3 cells. In kind it is biochemical.

For `O=C1CCC(N2C(=O)c3ccc(NCCCCCCCCCC(=O)N4CCc5ccc(NC(=O)c6n[nH]c7ccc(-c8cccnc8F)cc67)cc5C4)cc3C2=O)C(=O)N1` (centres unmarked) [5k, N-(2-(10-((2-(2,6-dioxopiperidin-3-yl)-1,3-dioxoisoindolin-5-yl)amino)-decanoyl)-1,2,3,4-tetrahydroisoquinolin-7-yl)-5-(2-fluoropyridin-3-yl)-1H-indazole-3-carboxamide], the IC50 was found to be 65.2 nM. Under `O=C(Nc1ccc2c(c1)CNCC2)c1n[nH]c2ccc(-c3cccnc3F)cc12` [compound 1, 5-(2-fluoropyridin-3-yl)-N-(1,2,3,4-tetrahydroisoquinolin-7-yl)-1H-indazole-3-carboxamide] stands 0.74 nM.
